The test system of data set [1] is J774.A1. Put plainly: Antiinflammatory activity against LPS-induced mouse J774.A1 cells assessed as inhibition of IL-6 release at 10 uM pretreated for 30 mins followed by LPS stimulation and measured after 24 hrs by ELISA relative to control. To be noted: time 24.5 hrs. The class given is functional. A general note: In an ELISA, binding on a coated surface is turned into a signal by an enzyme label.

In data set [2] the test system is Mus musculus. Put plainly: Antiinflammatory activity against C57BL/6 mouse model of LPS induced acute lung injury assessed as reduction in pulmonary edema by measuring reduction in lung wet/dry ratio at 20 mg/kg, po administered every 12 hrs for 3 times followed by LPS stimulation for 6 hrs starting from 30 mins post last dose. The class given is functional, organism-based. Particulars: time 42.5 hrs.

Data set [3] concerns Mus musculus. Put plainly: Antiinflammatory activity against C57BL/6 mouse model of LPS induced acute lung injury assessed as reduction in TNF-alpha mRNA expression in lung at 20 mg/kg, po administered every 12 hrs for 3 times followed by LPS stimulation for 6 hrs starting from 30 mins post last dose by RT-qPCR analysis. The class given is functional, organism-based. Particulars: time 42.5 hrs.

The test system of data set [4] is Mus musculus. Put plainly: Antiinflammatory activity against C57BL/6 mouse model of LPS induced acute lung injury assessed as reduction in IL-6 level in BALF at 20 mg/kg, po administered every 12 hrs for 3 times followed by LPS stimulation for 6 hrs starting from 30 mins post last dose by ELISA. The class given is functional, organism-based. Particulars: time 42.5 hrs.

For data set [5], the system named is Mus musculus. Put plainly: Antiinflammatory activity against C57BL/6 mouse model of LPS induced acute lung injury assessed as reduction in IL-6 level in serum at 20 mg/kg, po administered every 12 hrs for 3 times followed by LPS stimulation for 6 hrs starting from 30 mins post last dose by ELISA. The class given is functional, organism-based. To be noted: time 42.5 hrs.

The subject of data set [6] is Mus musculus. Put plainly: Antiinflammatory activity against C57BL/6 mouse model of LPS induced acute lung injury assessed as reduction in total number of cells in BALF at 20 mg/kg, po administered every 12 hrs for 3 times followed by LPS stimulation for 6 hrs starting from 30 mins post last dose. Particulars: time 42.5 hrs. The class given is functional, organism-based.

The subject of data set [7] is Mus musculus. Put plainly: Antiinflammatory activity against C57BL/6 mouse model of LPS induced acute lung injury assessed as reduction in IL-6 mRNA expression in lung at 20 mg/kg, po administered every 12 hrs for 3 times followed by LPS stimulation for 6 hrs starting from 30 mins post last dose by RT-qPCR analysis. To be noted: time 42.5 hrs. It is filed as functional, organism-based. On the technique in general: In qPCR the cycle at which signal appears reflects the starting amount.

Data set [8] relates to J774.A1. Put plainly: Antiinflammatory activity against LPS-induced mouse J774.A1 cells assessed as inhibition of IL-6 release at 10 uM pretreated for 30 mins followed by LPS stimulation and measured after 24 hrs by ELISA. It is filed as functional, cell-based. To be noted: time 24.5 hrs.
Data set [9] relates to Mus musculus. Put plainly: Antiinflammatory activity against C57BL/6 mouse model of DSS induced ulcerative colitis assessed as reduction in inflammatory cytokines infiltration in intestine at 100 mg/kg, po administered daily for 10 days by immunohistochemical staining based analysis. It is filed as functional, organism-based. Particulars: time 10.0 day.
Data set [10] relates to Mus musculus. Put plainly: Antiinflammatory activity against C57BL/6 mouse model of DSS induced ulcerative colitis assessed as reduction in IL-6 level in serum at 100 mg/kg, po administered daily for 10 days. The class given is functional, organism-based. To be noted: time 10.0 day.
Data set [11] concerns Mus musculus. Put plainly: Antiinflammatory activity against C57BL/6 mouse model of DSS induced ulcerative colitis assessed as reversal of shortened intestinal length due to fecal obstruction at 100 mg/kg, po administered daily for 10 days. The class given is functional, organism-based. Particulars: time 10.0 day.
Data set [12] relates to Mus musculus. Put plainly: Antiinflammatory activity against C57BL/6 mouse model of DSS induced ulcerative colitis assessed as reversal of weight loss at 100 mg/kg, po administered daily for 10 days. The class given is functional, organism-based. Particulars: time 10.0 day.
Data set [13] deals with J774.A1. Put plainly: Cytotoxicity against mouse J774.A1 cells assessed as reduction in cell proliferation at 10 uM measured after 24 hrs by CCK-8 assay. It is filed as toxicity, cell-based. To be noted: j774.a1, 24 h.
Data set [14] concerns THP-1. Put plainly: Antiinflammatory activity against LPS-induced PMA-differentiated human THP-1 cells assessed as inhibition of IL-6 release at 5 to 40 uM pretreated for 30 mins followed by LPS stimulation and measured after 24 hrs by ELISA. The class given is functional, cell-based. To be noted: dose 5-40 µM, time 24.5 hrs.
Data set [15] has as its system THP-1. Put plainly: Antiinflammatory activity against LPS-induced PMA-differentiated human THP-1 cells assessed as inhibition of TNF-alpha release at 5 to 40 uM pretreated for 30 mins followed by LPS stimulation and measured after 24 hrs by ELISA. Particulars: dose 5-40 µM, time 24.5 hrs. The class given is functional, cell-based.
In data set [16] the test system is RAW264.7. Put plainly: Antiinflammatory activity against LPS-induced mouse RAW264.7 cells assessed as inhibition of IL-6 release pretreated for 30 mins followed by LPS stimulation and measured after 24 hrs by ELISA. It is filed as functional, cell-based.
In data set [17] the test system is J774.A1. Put plainly: Antiinflammatory activity against LPS-induced mouse J774.A1 cells assessed as inhibition of IL-6 release at 1.25 to 10 uM pretreated for 30 mins followed by LPS stimulation and measured after 24 hrs by ELISA. Particulars: dose 1.25-10 µM, time 24.5 hrs. The class given is functional, cell-based.
Data set [18] can be described thus: Aqueous solubility of compound in phosphate buffer at pH 7.4 measured after 24 hrs by HPLC analysis. The class given is physicochemical.
For data set [19], the system named is J774.A1. Put plainly: Antiinflammatory activity against LPS-induced mouse J774.A1 cells assessed as inhibition of TNF-alpha release at 1.25 to 10 uM pretreated for 30 mins followed by LPS stimulation and measured after 24 hrs by ELISA. The class given is functional, cell-based. To be noted: dose 1.25-10 µM, time 24.5 hrs.
Data set [20] deals with RAW264.7. Put plainly: Antiinflammatory activity against LPS-induced mouse RAW264.7 cells assessed as inhibition of TNF-alpha release pretreated for 30 mins followed by LPS stimulation and measured after 24 hrs by ELISA. It is filed as functional, cell-based.

Data on 28 compounds can be found in ChEMBL document CHEMBL5505996, “Discovery of novel osthole derivatives exerting anti-inflammatory effect on DSS-induced ulcerative colitis and LPS-induced acute lung injury in mice” (Eur J Med Chem, 2024).

In brackets after ≈: the same amount, converted by molar mass. Activity calls are given as the source filed them. No cut-off for these calls is given here.

What is called inhibition is the share of the control response that was lost under treatment. On to `CC(C)=CCc1c(OCCN2CCCCC2)ccc2ccc(=O)oc12`, for which, in data set [1], the inhibition at 10 µM turned out to be 10.6%.
On to `C[C@@H]1C[C@H]2[C@@H]3CCC4=CC(=O)C=C[C@]4(C)[C@@]3(F)[C@@H](O)C[C@]2(C)[C@@]1(O)C(=O)CO`, for which the result in [2], in [3], in data set [4], in data set [5], in data set [6] and in data set [7] was Active.
For `CC(C)=CCc1c(OCCCCN2CCN(C)CC2)ccc2ccc(=O)oc12`, the inhibition at 10 µM in data set [1] was 82.3%.
For the compound `CC(C)=CCc1c(OCC2CCCO2)ccc2ccc(=O)oc12` (centres undefined), in [1], the inhibition at 10 µM is 82.5%.
As to `CC(C)=CCc1c(OCCN2CCCC2)ccc2ccc(=O)oc12`, the result in data set [8] was inactive.
As for `CC(C)=CCc1c(OCc2ccc(C)cc2)ccc2ccc(=O)oc12`, the inhibition at 10 µM in data set [1] is 88.7%.
Consider `CC(C)=CCc1c(OCc2cccc(F)c2)ccc2ccc(=O)oc12`, for which the inhibition at 10 µM in data set [1] was 68.8%.
As for `Nc1ccc(O)c(C(=O)O)c1`, the result in data set [9], in data set [10], in [11] and in data set [12] was Active.
Consider `CC(C)=CCc1c(OCCN2CCN(C)CC2)ccc2ccc(=O)oc12`, for which, in data set [1], the inhibition at 10 µM stood at 69%.
On to `CC(C)=CCc1c(OCCN2CCCC(C)C2)ccc2ccc(=O)oc12` (centres undefined), for which, in data set [1], the inhibition at 10 µM worked out at 31.4%.
Regarding `CC(C)=CCc1c(OCCN2CCOCC2)ccc2ccc(=O)oc12`, in data set [1], the inhibition at 10 µM came out at 71.7%.
For `CC(C)=CCc1c(OCCN(C)C)ccc2ccc(=O)oc12`, in data set [8], the outcome was inactive.
With `CC(C)=CCc1c(OCCCN2CCOCC2)ccc2ccc(=O)oc12`, the inhibition at 10 µM in data set [1] was determined as 69%.
`CC(C)=CCc1c(OCC2CO2)ccc2ccc(=O)oc12` (centres undefined): the inhibition at 10 µM in data set [1] worked out at 82.3%.
Take `COc1cccc(COc2ccc3ccc(=O)oc3c2CC=C(C)C)c1`: in [1], the inhibition at 10 µM was found to be 80.2%.
Take `CCN1CCN(CCCOc2ccc3ccc(=O)oc3c2CC=C(C)C)CC1`: the inhibition at 10 µM in [1] came to 92.2%. In addition, in data set [13], the Activity entry is on record as “Toxic”.
With `CC(C)=CCc1c(OCC(=O)Nc2ccccc2Br)ccc2ccc(=O)oc12`, the inhibition at 10 µM in data set [1] was 88.3%. Further, the Activity result in data set [13] is recorded as “Toxic”.
On to `CC(C)=CCc1c(OCC2CCCCC2)ccc2ccc(=O)oc12`, for which the inhibition at 10 µM in [1] amounted to 88%.
Take `CCN1CCN(C(=O)COc2ccc3ccc(=O)oc3c2CC=C(C)C)CC1`: the inhibition at 10 µM in data set [1] was determined as 46%.
The same measure, in the same setting: the value for `CC(C)=CCc1c(OCc2cccc(C)c2)ccc2ccc(=O)oc12` was 77.9%.
Consider `CC(C)=CCc1c(OCCCN2CCN(C)CC2)ccc2ccc(=O)oc12`, for which the inhibition at 10 µM in [1] was determined as 81.9%.
For the compound `CC(C)=CCc1c(OCC2CC2)ccc2ccc(=O)oc12`, the inhibition at 10 µM in data set [1] stood at 64.2%.
The same measure, in the same setting: the figure for `CCN1CCN(CCOc2ccc3ccc(=O)oc3c2CC=C(C)C)CC1` is 88.6%.
On the same count and under the same terms, the value for `CC(C)=CCc1c(OCCCN2CCCC2)ccc2ccc(=O)oc12` was 63.3%.
With `CC(C)=CCc1c(OCC(=O)Nc2ccccc2)ccc2ccc(=O)oc12`, in data set [1], the inhibition at 10 µM stood at 48.5%.
Regarding `CC(C)=CCc1c(OCC(=O)NCCCN2CCOCC2)ccc2ccc(=O)oc12`, the inhibition at 10 µM in [1] stood at 21.5%.
Same read-out and setting: the value for `CC(C)=CCc1c(OCCNCCN2CCOCC2)ccc2ccc(=O)oc12` was 46.8%.
As a reminder, the IC50 is the concentration that inhibits the measured activity by half. Broadly, the solubility is the dissolved amount per volume that the medium holds. Higher therefore signals a readily soluble substance. Take `COc1ccc2ccc(=O)oc2c1CC=C(C)C` [OSTHOLE]: the result in data set [14], in data set [15], in [17] and in data set [19] was inactive. The values for the IC50 in [16] and in data set [20] were 146 µM and 113 µM, respectively. For the same compound, the solubility at 24 h in data set [18] turned out to be 10 µg/mL (≈ 40.9 µM).
